The values below come from US7884242B2, “N-heterocyclylphthaldiamides as insecticides” (Bayer CropScience AG, priority 2004, dated 2011).

Molecules are shown by their SMILES.

Data set [1] can be described thus: log P determination with LC-MS under acidic conditions, pH 2.7. The data set is classed as physicochemical. The conditions noted are these: reverse phase HPLC column (C 18). As to the method: (§1) The determination of the log P values given in the above table and preparation examples is carried out in accordance with EEC directive 79/831 Annex V.A8 by HPLC (High Performance Liquid Chromatography) on a reverse phase column (C 18). Temperature: 43° C. The determination with LC-MS under acidic conditions is carried out at pH 2.7 with 0.1% aqueous formic acid and acetonitrile (contains 01% formic acid) as eluents; linear gradient from 10% acetonitrile to 95% acetonitrile. Calibration was is carried out with unbranched alkan-2-ones (with 3 to 16 carbon atoms) of known log P values (Determination of log P values by the retention times by linear interpolation between two sequential alkanones).

Data set [2] is described as follows: log P determination by HPLC on reverse phase column, pH 2.3. The data set is classed as physicochemical. The conditions noted are these: reverse phase HPLC column (C 18), reverse phase column (C 18), pH 2.3, 43° C. As to the method:
as §1, with “is carried out” for “with LC-MS”, “conditions” for “conditions is carried out”, “2.3” for “2.7”, “phosphoric” for “formic”, “acetonitrile” for “acetonitrile (contains 01% formic acid)”, “of” for “from”

The subject of data set [3] is two-spotted spider mite (Tetranychus urticae). Briefly: Tetranychus Test OP resistant. The format is in vivo. Here is the method:
[table] For the preparation of a suitable active compound formulation 1 part by weight of the active compound is mixed with the above amounts of solvent and emulsifier and the concentrate is diluted to the desired concentration with water containing emulsifier. Bean leaf slices (Phaseolus vulgaris) that are infested by all stages of the two-spotted spider mite (Tetranychus urticae) are sprayed with an active substance preparation at the desired concentration. After the desired time the action in % is determined. Here 100% means that all spider mites were killed; 0% means that no spider mites were killed.

The test system of data set [4] is green peach aphid (Myzus persicae). Nature of the data set: Myzus test (spray treatment). Particulars: for pest or weed control at 100 g/ha: Myzus persicae, in Brassica oleracea, 120 h, spray treatment, China cabbage slices, after 5 d, read-out: Death rate in % after 5d; for activity in Myzus test (spray treatment): statement in words. The data set is classed as in vivo. As to the method:
[table] For the preparation of a suitable active compound formulation 1 part by weight of the active compound is mixed with the above amounts of solvent and emulsifier and the concentrate is diluted to the desired concentration with water containing emulsifier. China cabbage slices (Brassica pekinensis) that are infected with all stages of the green peach aphid (Myzus persicae) are sprayed with an active compound preparation at the desired concentration. After the desired time the activity in % is determined. Here 100% means that all aphids were killed; 0% means that no aphids were killed.

Data set [5] has as its system caterpillars of the fall army worm (Spodoptera frugiperda). Briefly: Spodoptera frugiperda test (spray treatment). The data set is classed as in vivo. Particulars: for pest or weed control at 4 g/ha: Spodoptera frugiperda, 168 h, spray treatment, maize leaf sections, after 7 d, read-out: Death rate in % after 7d; for activity in Spodoptera frugiperda test (spray treatment): statement in words. Here is the method: [table] For the preparation of a suitable active compound formulation 1 part by weight of the active compound is mixed with the above amounts of solvent and emulsifier and the concentrate is diluted to the desired concentration with water containing emulsifier. Maize leaf sections (Zea mays) are sprayed with an active compound preparation of the desired concentration and after drying infected with caterpillars of the fall army worm (Spodoptera frugiperda). After the desired time the activity in % is determined. Here 100% means that all caterpillars were killed; 0% means that no caterpillars were killed.

In data set [6] the test system is larvae of the mustard leaf beetle (Phaedon cochleariae). Nature of the data set: Phaedon test (spray treatment). The data set is classed as in vivo. The conditions noted are these: for activity in Phaedon test (spray treatment): statement in words. Here is the method:
[table] For the preparation of a suitable active compound formulation 1 part by weight of the active compound is mixed with the above amounts of solvent and emulsifier and the concentrate is diluted to the desired concentration with water containing emulsifier. China cabbage slices (Brassica pekinensis) are sprayed with an active compound preparation of the desired composition and after drying infected with larvae of the mustard leaf beetle (Phaedon cochleariae). After the desired time the activity in % is determined. Here 100% means that all beetle larvae were killed; 0% means that no beetle larvae were killed.

In data set [7] the test system is caterpillars of the beet army worm (Spodoptera exigua). Nature of the data set: Spodoptera exigua test (resistant strain). The format is in vivo. As to the method:
[table] For the preparation of a suitable active compound formulation 1 part by weight of the active compound is mixed with the above amounts of solvent and emulsifier and the concentrate is diluted to the desired concentration with water containing emulsifier. Cabbage leaves (Brassica oleracea) are treated by dipping in the active compound preparation at the desired concentration and infected with caterpillars of the beet army worm (Spodoptera exigua) while the leaves are still moist. After the desired time the death rate in % is determined. Here 100% means that all caterpillars were killed; 0% means that no caterpillars were killed.

Data set [8] has as its system green peach aphid (Myzus persicae). Briefly: Myzus persicae test; hydroponic treatment. The format is in vivo. Particulars: for Death rate in % after 6d: 20 ppm in water, hydroponic treatment, pea plant; for activity in Myzus persicae test; hydroponic treatment: statement in words. As to the method:
[table] For the preparation of a suitable active compound formulation 1 part by weight of the active compound is mixed with the above amounts of solvent and emulsifier and the concentrate is diluted to the desired concentration with water. The active compound preparation is mixed with water. The concentration given refers to the amount of active compound per unit volume of water (mg/l=ppm). The treated water is placed in a vessel with a pea plant (Pisum sativum) which is then infection with the green peach aphid (Myzus persicae) is carried out. After the desired time the death rate in % is determined. Here 100% means that all aphids were killed, 0% means that no aphids were killed.

The test system of data set [9] is cotton aphid (Aphis gossypii). Briefly: Aphis gossypii test. The format is in vivo. Particulars: for Death rate in % after 7d: cotton leaves immersed; for activity in Aphis gossypii test: statement in words. Here is the method:
[table] For the preparation of a suitable active compound formulation 1 part by weight of the active compound is mixed with the above amounts of solvent and emulsifier and the concentrate is diluted to the desired concentration with water containing emulsifier. Cotton leaves (Gossypium hirsutum) heavily infested with the cotton aphid (Aphis gossypii) are treated by immersion in the active compound preparation at the desired concentration. After the desired time the death rate in % is determined. Here 100% means that all aphids were killed; 0% means that no aphids were killed.

For data set [10], the system named is caterpillars of the diamond back moth (Plutella xylostella). Nature of the data set: Plutella test. The data set is classed as in vivo. Particulars: for Death rate in % after 7d: cabbage leaves dipped; for activity in Plutella test: statement in words. Here is the method: [table] For the preparation of a suitable active compound formulation 1 part by weight of the active compound is mixed with the above amounts of solvent and emulsifier and the concentrate is diluted to the desired concentration with water containing emulsifier. Cabbage leaves (Brassica oleracea) are treated by dipping into the active compound preparation of the desired concentration and infected with caterpillars of the diamond back moth (Plutella xylostella) while the leaves were still wet. After the desired time the death rate is determined as %. Here 100% means that all caterpillars were killed; 0% means no caterpillars were killed.

[11] abbreviates: Phaedon cochleariae, 168 h, spray treatment, China cabbage slices, after 7 d, read-out: Death rate in % after 7d.

In the case of `Cc1sc(Cn2nc(C(F)(F)F)nc2C(F)(F)F)cc1N` [IIIb-1, 5-{[3,5-bis(trifluoromethyl)-1H-1,2,4-triazol-1-yl]methyl}-2-methylthiophene-3-amine], the chromatographic logP (commonly a lipophilicity value derived from retention on a column) in data set [1] stood at 2.2.
In data set [2], `CSC[C@H](C)NC(=O)c1c(Cl)cccc1C(=O)Nc1cnc(Cn2cc(C(F)(F)C(F)(F)F)c(C(F)(F)C(F)(F)F)n2)nc1C` [Example 64] registered a chromatographic logP of 4.11. In addition, the “Death rate in % after 5d” value in data set [3] (100 g/ha, OP resistant, bean leaf slices sprayed, after 5 d) is recorded as 100%. The “activity in Tetranychus Test OP resistant” value in data set [3] (statement in words) is given as “good activity”. Also, in [4], the pest or weed control at 100 g/ha was determined as 100% and the “activity in Myzus test (spray treatment)” value is on record as “good activity”. For the same compound, in [5], the pest or weed control at 4 g/ha was 100% and the “activity in Spodoptera frugiperda test (spray treatment)” value (from here on “activity in Spodoptera frugiperda test”) is reported as “good activity”. Besides, the pest or weed control at 4 g/ha in data set [6] (Phaedon cochleariae, 168 h, 4 g/ha, spray treatment, China cabbage slices, after 7 d, read-out: Death rate in % after 7d) amounted to 100%. For the same compound, the “activity in Phaedon test (spray treatment)” value (“activity in Phaedon test” for short) in data set [6] is on record as “good activity”.
As to `Cc1nc(Cn2nc(C(F)(F)F)cc2C(F)(F)F)ccc1NC(=O)c1cccc(Cl)c1C(=O)N[C@@H](C)CS(C)(=O)=O` [Example 9], in data set [2], the chromatographic logP turned out to be 2.69. For the same compound, in data set [4], the pest or weed control at 100 g/ha stood at 100% and the “activity in Myzus test (spray treatment)” value is listed as “good activity”. Also, the “Death rate in % after 7d” value in data set [7] (0.8 ppm, resistant strain, cabbage leaves dipped, after 7 d) is 80%. In [7] (statement in words), the “activity in Spodoptera exigua test (resistant strain)” value is “good activity”. Besides, in [5], the pest or weed control at 4 g/ha came out at 100% and the “activity in Spodoptera frugiperda test” value was “good activity”. The pest or weed control at 100 g/ha in [6] (setting [11]) is 100%. Moreover, the “activity in Phaedon test” value in data set [6] was “good activity”.
Take `Cc1nc(Cn2nc(C(F)(F)F)cc2C(F)(F)F)ncc1NC(=O)c1cccc(I)c1C(=O)N[C@@H](C)C[S+](C)[O-]` (stereo partly drawn) [Example 24]: in data set [8], the “Death rate in % after 6d” value worked out at 95% and the “activity in Myzus persicae test; hydroponic treatment” value was “good activity”. The compound also returned a chromatographic logP in data set [2] of 2.27. In data set [4], the pest or weed control at 100 g/ha stood at 100% and the “activity in Myzus test (spray treatment)” value is reported as “good activity”. For the same compound, in data set [5], the pest or weed control at 4 g/ha turned out to be 83% and the “activity in Spodoptera frugiperda test” value is “good activity”.
For `Cc1nc(Cn2nc(C(F)(F)F)cc2C(F)(F)F)ccc1N` [IIIa-1, 6-{[3,5-bis(trifluoromethyl)-1H-pyrazol-1-yl]methyl}-2-methylpyridin-3-amine], the chromatographic logP in data set [1] was 1.9.
As to `CSC[C@H](C)NC(=O)c1c(I)cccc1C(=O)Nc1ccc(Cn2nc(C(F)(F)F)cc2C(F)(F)F)nc1C` [Example 6], in data set [9] (20 ppm), the “Death rate in % after 7d” value is listed as 95%. In data set [9], the “activity in Aphis gossypii test” value was “good activity”. In addition, the chromatographic logP in data set [2] was 3.68. Also, in data set [4], the pest or weed control at 100 g/ha was determined as 100% and the “activity in Myzus test (spray treatment)” value is listed as “good activity”. Moreover, in data set [5], the pest or weed control at 4 g/ha worked out at 100% and the “activity in Spodoptera frugiperda test” value is “good activity”. Besides, the “Death rate in % after 7d” value in data set [10] (0.8 ppm) was determined as 100%. Besides, the “activity in Plutella test” value in data set [10] was “good activity”. The pest or weed control at 100 g/ha in data set [6] (setting [11]) was 100%. In addition, the “activity in Phaedon test” value in [6] is “good activity”.
Compound `Cc1sc(CO)cc1[N+](=O)[O-]` [(5-methyl-4-nitro-2-thienyl)methanol] returned a chromatographic logP in [1] of 1.4.
For `Cc1nc(Cn2nc(C(F)(F)F)nc2C(F)(F)F)ccc1NC(=O)c1cccc(Cl)c1C(=O)N[C@@H](C)CS(C)(=O)=O` [Example 16], in data set [9] (100 ppm), the “Death rate in % after 7d” value was 80%. Further, the “activity in Aphis gossypii test” value in data set [9] is “good activity”. This compound gave a chromatographic logP in data set [2] of 2.56. In [4], the pest or weed control at 100 g/ha came out at 100% and the “activity in Myzus test (spray treatment)” value is on record as “good activity”. For the same compound, in data set [5], the pest or weed control at 4 g/ha was 100% and the “activity in Spodoptera frugiperda test” value was “good activity”. In data set [10] (0.16 ppm), the “Death rate in % after 7d” value is listed as 100%. For the same compound, the “activity in Plutella test” value in [10] was “good activity”. Besides, the pest or weed control at 100 g/ha in data set [6] (setting [11]) turned out to be 100%. The “activity in Phaedon test” value in [6] is recorded as “good activity”.
With `Cc1nc(Cn2nc(C(F)(F)F)nc2C(F)(F)F)ncc1NC(=O)c1cccc(I)c1C(=O)N[C@@H](C)CS(C)(=O)=O` [Example 41], in [8], the “Death rate in % after 6d” value was 95% and the “activity in Myzus persicae test; hydroponic treatment” value is given as “good activity”. In data set [2], the chromatographic logP is 2.54. Further, in data set [4], the pest or weed control at 100 g/ha was 90% and the “activity in Myzus test (spray treatment)” value is on record as “good activity”.
In data set [1], `Cc1nc(CBr)ccc1[N+](=O)[O-]` [VII-1, 6-(bromomethyl)-2-methyl-3-nitropyridine] yielded a chromatographic logP of 2.2.
On the same count and under the same terms, with `Cc1nc(Cn2nc(C(F)(F)F)cc2C(F)(F)F)ccc1[N+](=O)[O-]` [IV-1, 6-{[3,5-bis(trifluoromethyl)-1H-pyrazol-1-yl]methyl}-2-methyl-3-nitropyridine] the figure was 3.8.
